# Results reported in US20250135006A1, “AMPHIPHILIC TLR7/8 ADJUVANTS AND USES THEREOF” (Pfizer Inc., priority 2023, published 2025).
# What was measured:
# [1] = biological target: T1, human toll like receptor 7 (hTLR7) (Homo sapiens, UniProt Q9NYK1); assay: hTLR7 in-vitro functional assay (HEK-Blue hTLR7 SEAP reporter); type: cell-based; conditions: HEK-Blue hTLR7 cells, overnight incubation
# T1 construct: host or cells: HEK293 (HEK-Blue hTLR7)
# T1 sequence (Q9NYK1 27-1049): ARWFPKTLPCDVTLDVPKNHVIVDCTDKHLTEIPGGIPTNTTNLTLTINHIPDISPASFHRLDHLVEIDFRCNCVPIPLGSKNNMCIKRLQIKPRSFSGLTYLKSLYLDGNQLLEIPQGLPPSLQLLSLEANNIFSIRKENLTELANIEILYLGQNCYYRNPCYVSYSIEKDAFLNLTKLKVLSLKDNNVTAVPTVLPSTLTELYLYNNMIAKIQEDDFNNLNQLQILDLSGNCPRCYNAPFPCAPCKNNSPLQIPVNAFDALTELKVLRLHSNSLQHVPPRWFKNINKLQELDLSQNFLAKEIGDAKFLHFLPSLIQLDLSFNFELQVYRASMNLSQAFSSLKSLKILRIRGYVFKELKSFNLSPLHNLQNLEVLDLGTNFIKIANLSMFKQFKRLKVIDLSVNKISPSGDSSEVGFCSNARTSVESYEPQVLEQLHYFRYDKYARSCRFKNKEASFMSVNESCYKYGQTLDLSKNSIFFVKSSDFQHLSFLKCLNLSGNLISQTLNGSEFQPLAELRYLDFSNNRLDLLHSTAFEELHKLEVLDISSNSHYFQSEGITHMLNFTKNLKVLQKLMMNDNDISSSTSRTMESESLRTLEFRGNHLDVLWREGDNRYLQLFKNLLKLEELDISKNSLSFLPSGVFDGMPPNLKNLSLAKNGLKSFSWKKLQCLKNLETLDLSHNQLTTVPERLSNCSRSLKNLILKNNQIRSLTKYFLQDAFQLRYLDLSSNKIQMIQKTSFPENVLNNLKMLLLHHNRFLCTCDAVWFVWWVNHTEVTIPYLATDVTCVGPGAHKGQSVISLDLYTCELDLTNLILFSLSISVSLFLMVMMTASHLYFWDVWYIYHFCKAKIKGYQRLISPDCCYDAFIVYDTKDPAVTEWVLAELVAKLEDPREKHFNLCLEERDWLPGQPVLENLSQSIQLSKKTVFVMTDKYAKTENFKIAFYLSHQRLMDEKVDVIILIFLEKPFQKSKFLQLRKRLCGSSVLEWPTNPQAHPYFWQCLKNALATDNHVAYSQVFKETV
# Description: (§1) To determine the ability of test compounds to activate the human toll like receptor 7 (hTLR7) or human toll like receptor 8 (hTLR8), cell-based reporter systems were utilized. HEK293 cells stably overexpressing either hTLR7 or hTLR8 along with a reporter gene containing an optimized secreted embryonic alkaline phosphatase gene (SEAP), under the control of the IFN-b minimal promoter fused to five NF-kB and AP-1-binding sites, were obtained from Invivogen (HEK-Blue™ hTLR7, cat #Hkb-htlr7; HEK-Blue™ hTLR8, cat #Hkb-htlr8). Stimulation of hTLR7 or hTLR8 in these cells activates NF-kB and AP-1 and induces the production of SEAP which can be quantified using an alkaline phosphatase detection reagent.
# (§2) On day one of the assay, compounds were prepared using 11-point half-log serial dilutions from a 10 mM DMSO stock solution and 50 nL was spotted into 384-well plates (PerkinElmer, cat #6007480). Positive and negative controls were also spotted within the assay plate and were used to determine percent effect during the analysis process. After resuspension in DMEM assay media containing FBS heat inactivated (10%), Glutamax (2 mM) and Penicillin/Streptomycin, 10,000 cells/20 ul/well were added to previously prepared compound plates. Plates were incubated overnight (16-20 hrs) at 37° C. in a 5% CO2 environment. Prewetted Microclime lids (Labcyte, LLS-0310) were used to prevent evaporation. On day two of the assay, QUANTI-Blue™ detection reagent was prepared by reconstituting QUANTI-Blue™ powder (InvivoGen, Rep-qb1) with 100 ml of sterile water and allowed to equilibrate to 37° C. for 15 minutes. 20 ul of QUANTI-Blue™ detection reagent was added to each well and plates were incubated at room temperature for 180 min. At the end of the incubation, plates were read on an Envision (Perkin Elmer) plate reader capturing absorbance at 650 nm.
# (§3) Using Positive (tool compound) and Negative (DMSO) controls, the percent (%) effect was calculated for each sample using the following equation: […]
# (§4) The % effect at each concentration of compound was calculated utilizing the ABase software suite (IBDS) and was relative to the amount of SEAP produced in the positive and negative control wells contained within each assay plate. The concentrations and % effect values for test compounds were fit using a 4-parameter logistic model in ABase and the concentration of compound that produced 50% response (EC50) was calculated.
# [2] = biological target: T2, human toll like receptor 8 (hTLR8) (Homo sapiens, UniProt Q9NR97); assay: hTLR8 in-vitro functional assay (HEK-Blue hTLR8 SEAP reporter); type: cell-based; conditions: HEK-Blue hTLR8 cells, overnight incubation
# T2 construct: host or cells: HEK293 (HEK-Blue hTLR8)
# T2 sequence (Q9NR97 27-1041): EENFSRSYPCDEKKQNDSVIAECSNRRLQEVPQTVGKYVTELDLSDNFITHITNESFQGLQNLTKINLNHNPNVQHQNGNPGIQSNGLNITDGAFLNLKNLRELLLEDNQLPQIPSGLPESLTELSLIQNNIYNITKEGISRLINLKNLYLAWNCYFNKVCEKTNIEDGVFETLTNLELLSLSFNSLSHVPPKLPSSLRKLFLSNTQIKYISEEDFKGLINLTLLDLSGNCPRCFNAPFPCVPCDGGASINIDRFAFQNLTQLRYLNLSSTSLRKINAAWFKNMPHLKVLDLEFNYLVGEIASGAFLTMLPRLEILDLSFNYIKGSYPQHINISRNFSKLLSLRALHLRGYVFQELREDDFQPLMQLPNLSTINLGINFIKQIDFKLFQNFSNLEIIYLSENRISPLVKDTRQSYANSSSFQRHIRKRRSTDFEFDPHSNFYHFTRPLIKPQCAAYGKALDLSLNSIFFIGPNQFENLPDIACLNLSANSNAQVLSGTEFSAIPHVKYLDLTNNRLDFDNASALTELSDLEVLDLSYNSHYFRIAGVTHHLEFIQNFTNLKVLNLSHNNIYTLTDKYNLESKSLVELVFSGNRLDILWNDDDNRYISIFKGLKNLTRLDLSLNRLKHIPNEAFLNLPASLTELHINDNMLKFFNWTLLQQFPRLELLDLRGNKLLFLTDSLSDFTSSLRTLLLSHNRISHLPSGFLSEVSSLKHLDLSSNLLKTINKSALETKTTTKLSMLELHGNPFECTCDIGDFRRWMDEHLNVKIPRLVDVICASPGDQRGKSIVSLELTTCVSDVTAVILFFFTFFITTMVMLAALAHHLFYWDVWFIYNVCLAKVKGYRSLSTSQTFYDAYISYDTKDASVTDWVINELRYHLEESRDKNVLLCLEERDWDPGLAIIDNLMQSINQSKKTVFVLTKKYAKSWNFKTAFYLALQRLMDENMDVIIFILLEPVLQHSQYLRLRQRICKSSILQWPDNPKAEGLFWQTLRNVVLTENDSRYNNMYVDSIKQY
# Description: as §1, §2, §3, §4
Structure (SMILES),EC50 [1] [nM],EC50 [2] [nM]
"CCCCc1nc2c(N)nc3cc(CCCN4CCN(C(=O)CCOCCOCCOCCOCCOCCOCCOCCOCCOCCOCCOCCOCCOCCOCCOCCOCCOCCOCCOCCOCCOCCOCCOCCOCCNC(=O)CCOCCOCCOCCOCCOCCOCCOCCOCCOCCOCCOCCOCCOCCOCCOCCOCCOCCOCCOCCOCCOCCOCCOCCOCCNC(=O)O[C@H]5CC[C@@]6(C)C(=CC[C@H]7[C@@H]8CC[C@H]([C@H](C)CCCC(C)C)[C@@]8(C)CC[C@@H]76)C5)CC4)ccc3c2n1CC(C)(CO)CO [Compound 8, (3beta,20R)-cholest-5-en-3-yl {151-[4-(3-{4-amino-2-butyl-1-[3-hydroxy-2-(hydroxymethyl)-2-methylpropyl]-1H-imidazo[4,5-c]quinolin-7-yl}propyl)piperazin-1-yl]-75,151-dioxo-3,6,9,12,15,18,21,24,27,30,33,36,39,42,45,48,51,54,57,60,63,66,69,72,79,82,85,88,91,94,97,100,103,106,109,112,115,118,121,124,127,130,133,136,139,142,145,148-octatetracontaoxa-76-azahenpentacontahect-1-yl}carbamate]",150,731
"CCCCc1nc2c(N)nc3cc(CCCN4CCN(C(=O)CCOCCOCCOCCOCCOCCOCCOCCOCCOCCOCCOCCOCCOCCOCCOCCOCCOCCOCCOCCOCCOCCOCCOCCOCCNC(=O)O[C@H]5CC[C@@]6(C)C(=CC[C@H]7[C@@H]8CC[C@H]([C@H](C)CCCC(C)C)[C@@]8(C)CC[C@@H]76)C5)CC4)ccc3c2n1CC(C)(CO)CO [Compound 9, (3beta)-cholest-5-en-3-yl {75-[4-(3-{4-amino-2-butyl-1-[3-hydroxy-2-(hydroxymethyl)-2-methylpropyl]-1H-imidazo[4,5-c]quinolin-7-yl}propyl)piperazin-1-yl]-75-oxo-3,6,9,12,15,18,21,24,27,30,33,36,39,42,45,48,51,54,57,60,63,66,69,72-tetracosaoxapentaheptacont-1-yl}carbamate]",181,16000
"CCOCc1nc2c(N)nc3cc(CCCN4CCN(C(=O)CCOCCOCCOCCOCCOCCOCCOCCOCCOCCOCCOCCOCCNC(=O)CCOCCOCCOCCOCCNC(=O)O[C@H]5CC[C@@]6(C)C(=CC[C@H]7[C@@H]8CC[C@H]([C@H](C)CCCC(C)C)[C@@]8(C)CC[C@@H]76)C5)CC4)ccc3c2n1CC(C)(CO)CO [Compound 13, (3beta,20R)-cholest-5-en-3-yl {55-[4-(3-{4-amino-2-(ethoxymethyl)-1-[3-hydroxy-2-(hydroxymethyl)-2-methylpropyl]-1H-imidazo[4,5-c]quinolin-7-yl}propyl)piperazin-1-yl]-15,55-dioxo-3,6,9,12,19,22,25,28,31,34,37,40,43,46,49,52-hexadecaoxa-16-azapentapentacont-1-yl}carbamate]",223,3330
"CCCCc1nc2c(N)nc3cc(CCCN4CCN(CCCOCCOCCOCCOCCOCCOCCOCCOCCOCCOCCOCCOCCOCCOCCOCCOCCNC(=O)O[C@H]5CC[C@@]6(C)C(=CC[C@H]7[C@@H]8CC[C@H]([C@H](C)CCCC(C)C)[C@@]8(C)CC[C@@H]76)C5)CC4)ccc3c2n1CC(C)(CO)CO [Compound 14, (3beta,20R)-cholest-5-en-3-yl {51-[4-(3-{4-amino-2-butyl-1-[3-hydroxy-2-(hydroxymethyl)-2-methylpropyl]-1H-imidazo[4,5-c]quinolin-7-yl}propyl)piperazin-1-yl]-3,6,9,12,15,18,21,24,27,30,33,36,39,42,45,48-hexadecaoxahenpentacont-1-yl}carbamate]",236,22600

# Continued, values first:
EC50 [1] [nM],EC50 [2] [nM],Structure (SMILES)
186,9910,"CCCCc1nc2c(N)nc3cc(CCCN4CCN(CCCOCCNC(=O)O[C@H]5CC[C@@]6(C)C(=CC[C@H]7[C@@H]8CC[C@H]([C@H](C)CCCC(C)C)[C@@]8(C)CC[C@@H]76)C5)CC4)ccc3c2n1CC(C)(CO)CO [Compound 10, (3beta,20R)-cholest-5-en-3-yl (2-{3-[4-(3-{4-amino-2-butyl-1-[3-hydroxy-2-(hydroxymethyl)-2-methylpropyl]-1H-imidazo[4,5-c]quinolin-7-yl}propyl)piperazin-1-yl]propoxy}ethyl)carbamate]"
210,19600,"CCCCc1nc2c(N)nc3cc(CCCN4CCN(C(=O)CCOCCOCCOCCOCCNC(=O)O[C@H]5CC[C@@]6(C)C(=CC[C@H]7[C@@H]8CC[C@H]([C@H](C)CCCC(C)C)[C@@]8(C)CC[C@@H]76)C5)CC4)ccc3c2n1CC(C)(CO)CO [Compound 12, (3beta,20R)-cholest-5-en-3-yl {15-[4-(3-{4-amino-2-butyl-1-[3-hydroxy-2-(hydroxymethyl)-2-methylpropyl]-1H-imidazo[4,5-c]quinolin-7-yl}propyl)piperazin-1-yl]-15-oxo-3,6,9,12-tetraoxapentadec-1-yl}carbamate]"
276,17600,"CCCCc1nc2c(N)nc3cc(CCCN4CCN(CCCOCCOCCOCCOCCNC(=O)CCOCCOCCOCCOCCNC(=O)O[C@H]5CC[C@@]6(C)C(=CC[C@H]7[C@@H]8CC[C@H]([C@H](C)CCCC(C)C)[C@@]8(C)CC[C@@H]76)C5)CC4)ccc3c2n1CC(C)(CO)CO [Compound 15, (20R)-cholest-5-en-3beta-yl {31-[4-(3-{4-amino-2-butyl-1-[3-hydroxy-2-(hydroxymethyl)-2-methylpropyl]-1H-imidazo[4,5-c]quinolin-7-yl}propyl)piperazin-1-yl]-15-oxo-3,6,9,12,19,22,25,28-octaoxa-16-azahentriacontan-1-yl}carbamate]"
